This is an account of results in US20240368181A1, “QUINOXALINE DERIVATIVES AND USES THEREOF” (Black Diamond Therapeutics, Inc., priority 2021, published 2024).

One may read the IC50 as the concentration that gives 50% inhibition. A high value points to weaker potency in that assay.

SMILES strings stand for the structures.

Assay type in all cases: cell-based
In assay [1] the test system is SNU-16 (FGFR2-amplification) cells. Description: cell proliferation assay (CellTiterGlo), SNU-16 cells. Particulars: Homo sapiens, 72 hours. The text has this: (§1) In some embodiments, the biological assay assess the ability of the compounds to inhibit cell proliferation.
(§2) In some embodiments, cells (e.g., SNU-16 (FGFR2-amplification) cells) may be suspended and dispensed in plates. In some embodiments, cells (e.g., UM-UC-14 (FGFR3-S249C) cells) may be suspended and dispensed in plates. In some embodiments, cells (e.g., DMS-114 (FGFR1 overexpression) cells) may by suspended and dispensed in plates. In some embodiments, cells (e.g., RT-112 (FGFR3-Tacc3 fusion) cells) may be suspended and dispensed in plates. In some embodiments, to determine the effect of the compounds of the present disclosure on cell proliferation, cells (e.g., SNU-16, UM-UC-14, DMS-114 and […] cells) may be incubated in the presence of vehicle control (e.g., DMSO) or a compound of the present disclosure at varying concentrations and the inhibition of cell growth may be determined by luminescent quantification (e.g., of intracellular ATP content using CellTiterGlo), according to the manufacturers protocol. In some embodiments, to determine the IC50 values, the vehicle-treated cells were normalized as viable cells and the growth was analyzed using a software (e.g., the CDD Vault software (Collaborative Drug Discovery, Burlingame, CA)).

Assay [2] has as its system UM-UC-14 (FGFR3-S249C) cells. Briefly: cell proliferation assay (CellTiterGlo), UM-UC-14 cells. The following applies: UMUC14, 72 h.
Description: as §1, §2
(In ATP-based viability assays light output follows the ATP content of the culture.)

Assay [3] concerns DMS-114 (FGFR1 overexpression) cells. Briefly: cell proliferation assay (CellTiterGlo), DMS-114 cells. The following applies: Homo sapiens, DMS-114, 72 h.
Description: as §1, §2

Assay [4] concerns RT-112 (FGFR3-Tacc3 fusion) cells. Briefly: cell proliferation assay (CellTiterGlo), RT-112 cells. The following applies: Homo sapiens, RT-112, RT112 cells, 72 hours.
Description: as §1, §2

With `Cc1nc2ccc(Oc3ccc4ncc(-c5cnn(CC6CC(F)(F)C6)c5)nc4c3-n3ccnc3)cc2[nH]1` [Compound 69], the IC50 was 100 to 400 nM in assay [1], 100 to 400 nM in assay [2], not below 400 nM in assay [3] and 100 to 400 nM in assay [4].
Consider `Cc1nc2ccc(Oc3ccc4ncc(-c5cnn(CC6(O)CC6)c5)nc4c3C3=CC(C)(C)OC3)c(F)c2[nH]1` [Compound 73], for which the IC50 in assay [1] is less than 20 nM; in assay [2], less than 20 nM; in assay [3], 20 to 100 nM; in assay [4], less than 20 nM.
In the case of `Cc1nc2ccc(Oc3ccc4ncc(-c5cnn(CC6(O)CC6)c5)nc4c3N3CCOC3=O)c(F)c2[nH]1` [Compound 74], the IC50 in assay [1], in assay [2], in assay [3] and in assay [4] was not below 400 nM in each case.
`Cc1nc2ccc(Oc3ccc4ncc(-c5cnn(CC6(O)CC6)c5)nc4c3N3CCOCC3)cc2[nH]1` [Compound 75]: the IC50 is 20 to 100 nM in assay [1], 100 to 400 nM in assay [2], not below 400 nM in assay [3] and 100 to 400 nM in assay [4].
As to `Cc1nc2ccc(Oc3ccc4ncc(-c5cnn(CC6CC(F)(F)C6)c5)nc4c3C3=CC(C)(C)OC3)cc2[nH]1` [Compound 76], the IC50 in assay [1] was less than 20 nM; in assay [2], less than 20 nM; in assay [3], 100 to 400 nM; in assay [4], less than 20 nM.
As for `Cc1nc2ccc(Oc3ccc4ncc(-c5cnn(CC6(O)CC6)c5)nc4c3C3=CCOC3)c(F)c2[nH]1` [Compound 77], the IC50 in assay [1] is less than 20 nM; in assay [2], 20 to 100 nM; in assay [3], 20 to 100 nM; in assay [4], less than 20 nM.
Regarding `CC(=O)N1CC=C(c2c(Oc3ccc4nc(C)[nH]c4c3)ccc3ncc(-c4cnn(CC5CC(F)(F)C5)c4)nc23)C1` [Compound 78], the IC50 was 100 to 400 nM in assay [1], 100 to 400 nM in assay [2], not below 400 nM in assay [3] and 100 to 400 nM in assay [4].
Turning to `CN=S1(=O)CCC(n2cc(-c3cnc4ccc(Oc5ccc6nc(C)[nH]c6c5)c(Cl)c4n3)cn2)CC1` (stereo not shown) [Compound 80], the IC50 in assay [1] is 20 to 100 nM; in assay [2] it was 20 to 100 nM; in assay [3] it was not below 400 nM; in assay [4], 20 to 100 nM.
For the compound `Cc1nc2ccc(Oc3ccc4ncc(-c5cnn(CC6CC(F)(F)C6)c5)nc4c3-c3ccoc3)c(F)c2[nH]1` [Compound 81], the IC50 in assay [1] was less than 20 nM; in assay [2], less than 20 nM; in assay [3], 100 to 400 nM; in assay [4] it was less than 20 nM.
Regarding `Cc1nc2ccc(Oc3ccc4ncc(-c5cnn(C6CCN(S(C)(=N)=O)CC6)c5)nc4c3Cl)cc2[nH]1` (stereo not shown) [Compound 82], the IC50 in assay [1] was less than 20 nM; in assay [2], 20 to 100 nM; in assay [3], 100 to 400 nM; in assay [4], 20 to 100 nM.
With `Cc1nc2ccc(Oc3ccc4ncc(-c5cnn(CC6CC(F)(F)C6)c5)nc4c3C3=CCNC3)cc2[nH]1` [Compound 83], the IC50 is 100 to 400 nM in assay [1], 20 to 100 nM in assay [2], not below 400 nM in assay [3] and 100 to 400 nM in assay [4].
As for `Cc1nc2ccc(Oc3ccc4ncc(-c5cnn(CC6CC(F)(F)C6)c5)nc4c3C3=CCN(C(=O)OC(C)(C)C)C3)cc2[nH]1` [Compound 84], the IC50 was 100 to 400 nM in assay [1], not below 400 nM in assay [2], not below 400 nM in assay [3] and 100 to 400 nM in assay [4].
For `Cc1nc2ccc(Oc3ccc4ncc(-c5cnn(C6CCS(=N)(=O)CC6)c5)nc4c3Cl)cc2[nH]1` (stereo not shown) [Compound 85], the IC50 in assay [1] is 20 to 100 nM; in assay [2], 100 to 400 nM; in assay [3], not below 400 nM; in assay [4], 20 to 100 nM.
In the case of `CN=S(C)(=O)N1CCC(n2cc(-c3cnc4ccc(Oc5ccc6nc(C)[nH]c6c5)c(Cl)c4n3)cn2)CC1` (stereo not shown) [Compound 86], the IC50 in assay [1] was less than 20 nM; in assay [2], less than 20 nM; in assay [3] it was 100 to 400 nM; in assay [4] it was less than 20 nM.
On to `Cc1nc2ccc(Oc3ccc4ncc(-c5cnn(CC6CC(F)(F)C6)c5)nc4c3C3CCCOC3)cc2[nH]1` (stereo not shown) [Compound 87], for which the IC50 in assay [1], in assay [2], in assay [3] and in assay [4] was not below 400 nM throughout.
For the compound `Cc1nc2ccc(Oc3ccc4ncc(-c5cnn(CC6CC(F)(F)C6)c5)nc4c3C3=CC(C)(C)OC3(C)C)c(F)c2[nH]1` [Compound 88], the IC50 in assay [1] fell in the range of 20 to 100 nM; in assay [2], 20 to 100 nM; in assay [3], 100 to 400 nM; in assay [4] it was 20 to 100 nM.
On to `Cc1nc2ccc(Oc3ccc4ncc(-c5cnn(CC6CC(F)(F)C6)c5)nc4c3C3=CCOC3)c(F)c2[nH]1` [Compound 89], for which the IC50 in assay [1] was less than 20 nM; in assay [2], 20 to 100 nM; in assay [3], 100 to 400 nM; in assay [4], 20 to 100 nM.
Turning to `Cc1nc2ccc(Oc3ccc4ncc(-c5cnn(CC6CC(F)(F)C6)c5)nc4c3C3=CC(C)(C)OC3(C)C)cc2[nH]1` [Compound 90], the IC50 lay within 20 to 100 nM in assay [1], 20 to 100 nM in assay [2], 100 to 400 nM in assay [3] and 20 to 100 nM in assay [4].
`Cc1nc2ccc(Oc3ccc4ncc(-c5cnn(CC6CC(F)(F)C6)c5)nc4c3C3=CCCOC3)cc2[nH]1` [Compound 91]: the IC50 in assay [1] was 20 to 100 nM; in assay [2], 20 to 100 nM; in assay [3], not below 400 nM; in assay [4], 20 to 100 nM.
With `Cc1nc2ccc(Oc3ccc4ncc(-c5cnn(CCC(F)F)c5)nc4c3Cl)cc2[nH]1` [Compound 92], the IC50 in assay [1] was 100 to 400 nM; in assay [2], 100 to 400 nM; in assay [3], not below 400 nM; in assay [4], 100 to 400 nM.
As for `Cc1nc2ccc(Oc3ccc4ncc(-c5cnn(CC6(N)CC6)c5)nc4c3Cl)cc2[nH]1` [Compound 93], the IC50 in assay [1] is 100 to 400 nM; in assay [2] it was 20 to 100 nM; in assay [3], not below 400 nM; in assay [4], 100 to 400 nM.
With `Cc1nc2ccc(Oc3ccc4ncc(-c5cnn(CC6CC(F)(F)C6)c5)nc4c3C3CCOCC3)cc2[nH]1` [Compound 94], the IC50 in assay [1], in assay [2], in assay [3] and in assay [4] was not below 400 nM throughout.
In the case of `Cc1nc2ccc(Oc3ccc4ncc(-c5cnn(CC6CC(F)(F)C6)c5)nc4c3N3CCOC3=O)c(F)c2[nH]1` [Compound 95], the IC50 in assay [1] was 100 to 400 nM; in assay [2], not below 400 nM; in assay [3], not below 400 nM; in assay [4], 100 to 400 nM.
Take `Cc1nc2ccc(Oc3ccc4ncc(-c5cnn(CC6CC(F)(F)C6)c5)nc4c3-n3ccnc3)c(F)c2[nH]1` [Compound 96]: the IC50 in assay [1] fell in the range of 20 to 100 nM; in assay [3], 100 to 400 nM; in assay [4], 20 to 100 nM.
Take `Cc1nc2ccc(Oc3ccc4ncc(-c5cnn(C[C@@H](C)O)c5)nc4c3Cl)cc2[nH]1` [Compound 132]: the IC50 in assay [1] and in assay [4] was 20 to 100 nM in each case.
Regarding `Cc1nc2ccc(Oc3ccc4ncc(-c5cnn(CC6CC(F)(F)C6)c5)nc4c3-n3c(C)ccc3C)cc2[nH]1` [Compound 133], the IC50 was not below 400 nM in assay [1] and 100 to 400 nM in assay [4].
The matching figures for `Cc1nc2ccc(Oc3ccc4ncc(-c5cnn(CC6CC(F)(F)C6)c5)nc4c3C3CCOC3)cc2[nH]1` (stereo not shown) [Compound 134]: 20 to 100 nM and 20 to 100 nM.
In the same order, the values of `Cc1nc2ccc(Oc3ccc4ncc(-c5cnn(C6CCN(C)C7(CC7)C6)c5)nc4c3Cl)c(F)c2[nH]1` (stereo not shown) [Compound 135] are less than 20 nM and less than 20 nM.
The matching figures for `Cc1nc2ccc(Oc3ccc4ncc(-c5cnn(CC6CC(F)(F)C6)c5)nc4c3Cl)c(Cl)c2[nH]1` [Compound 136]: 100 to 400 nM and 100 to 400 nM.
In the case of `Cc1nc2ccc(Oc3ccc4ncc(-c5cnn(CC6(O)CC6)c5)nc4c3F)c(Cl)c2[nH]1` [Compound 137], the IC50 in assay [1] and in assay [4] was 100 to 400 nM in each case.
Turning to `Cc1nc2ccc(Oc3ccc4ncc(-c5cnn(CC6(O)COC6)c5)nc4c3Cl)c(F)c2[nH]1` [Compound 138], the IC50 in assay [1] and in assay [4] was not below 400 nM each time.
For `Cc1nc2ccc(Oc3ccc4ncc(-c5cnn(C[C@H]6C[C@@](C)(O)C6)c5)nc4c3Cl)cc2[nH]1` [Compound 180], the IC50 is 20 to 100 nM in assay [1], 20 to 100 nM in assay [2] and not below 400 nM in assay [3].
Regarding `Cc1nc2ccc(Oc3ccc4ncc(-c5cnn(C[C@H]6C[C@](C)(O)C6)c5)nc4c3Cl)cc2[nH]1` [Compound 181], the figures for the IC50 in assay [1], in assay [2] and in assay [3] were less than 20 nM, 20 to 100 nM and not below 400 nM, respectively.
In the same order, the values of `Cc1nc2ccc(Oc3ccc4ncc(-c5cnn(C(C)C6CC(F)(F)C6)c5)nc4c3Cl)cc2[nH]1` (stereo not shown) [Compound 182] are 20 to 100 nM, 20 to 100 nM and not below 400 nM.
For the compound `Cc1nc2ccc(Oc3ccc4ncc(-c5cnn(C6CCN(C(=O)N(C)C)CC6)c5)nc4c3Cl)cc2[nH]1` [Compound 261], the concentration for half-maximal inhibition (IC50) in assay [1] is less than 20 nM; in assay [2], less than 20 nM; in assay [3], 20 to 100 nM.
